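The compound was tested at five concentrations on cells cultured in 96-well plates, with a 48-hour exposure period. GI50 = concentration required for 50% inhibition of growth.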 The source made the active and inactive calls. Cut-off read from the data, not from the text of the source: active = GI50 up to about 1.1 µM and inactive = higher.
What was measured:
Test in all cases: NCI tumour cell line growth inhibition, 48 h
SF-539 = test system: SF-539
HOP-62 = test system: HOP-62
786-0 = test system: 786-0
CAKI-1 = test system: CAKI-1
SF-268 = test system: SF-268
OVCAR-3 = test system: OVCAR-3
COLO 205 = test system: COLO 205
SNB-19 = test system: SNB-19
OVCAR-8 = test system: OVCAR-8
SNB-75 = test system: SNB-75
HT-29 = test system: HT-29
IGROV-1 = test system: IGROV-1
SN12C = test system: SN12C
NCI-H226 = test system: NCI-H226
UO-31 = test system: UO-31
NCI-H522 = test system: NCI-H522
SW-620 = test system: SW-620
HCT-15 = test system: HCT-15
UACC-62 = test system: UACC-62

## CCc1cccc(C)c1NC(=O)C1=C(C)NC(C)=C(C(=O)Nc2c(C)cccc2CC)C1c1ccc([N+](=O)[O-])cc1
SF-539
  GI50: > 100 µM (inactive)
HOP-62
  GI50: 40.1 µM (inactive)
786-0
  GI50: 72.8 µM (inactive)
CAKI-1
  GI50: 25.5 µM (inactive)
SF-268
  GI50: 39.9 µM (inactive)
OVCAR-3
  GI50: 44.9 µM (inactive)
COLO 205
  GI50: 21.9 µM (inactive)
SNB-19
  GI50: 53.5 µM (inactive)
OVCAR-8
  GI50: 49.5 µM (inactive)
SNB-75
  GI50: 3.98 µM (inactive)
HT-29
  GI50: 44.5 µM (inactive)
IGROV-1
  GI50: 29.6 µM (inactive)
SN12C
  GI50: 45.7 µM (inactive)
NCI-H226
  GI50: 39.8 µM (inactive)
UO-31
  GI50: 16.3 µM (inactive)
NCI-H522
  GI50: 15.5 µM (inactive)
SW-620
  GI50: 72.1 µM (inactive)

## COc1cc2c(cc1OC)[C@@H]([C@H](O)c1ccccc1)NCC2
HCT-15
  GI50: > 100 µM
SF-539
  GI50: > 100 µM (inactive)
HOP-62
  GI50: > 100 µM (inactive)
786-0
  GI50: > 100 µM (inactive)
CAKI-1
  GI50: > 84.9 µM (inactive)
SF-268
  GI50: > 100 µM (inactive)
OVCAR-3
  GI50: > 100 µM (inactive)
COLO 205
  GI50: > 100 µM (inactive)
SNB-19
  GI50: > 100 µM (inactive)
OVCAR-8
  GI50: > 100 µM (inactive)
SNB-75
  GI50: 55 µM (inactive)
HT-29
  GI50: > 100 µM (inactive)
IGROV-1
  GI50: > 100 µM (inactive)
SN12C
  GI50: > 100 µM (inactive)
NCI-H226
  GI50: > 100 µM (inactive)
UO-31
  GI50: > 92.7 µM (inactive)
NCI-H522
  GI50: > 100 µM (inactive)
SW-620
  GI50: > 100 µM (inactive)
UACC-62
  GI50: > 100 µM (inactive)

## NC1=NN(c2ccccc2)C(=O)C1C(=O)CCC(=O)Nc1cccc(Cl)c1 (configuration not stated)
HCT-15
  GI50: > 100 µM
SF-539
  GI50: > 100 µM (inactive)
HOP-62
  GI50: > 100 µM (inactive)
786-0
  GI50: > 100 µM (inactive)
CAKI-1
  GI50: > 100 µM (inactive)
SF-268
  GI50: > 100 µM (inactive)
OVCAR-3
  GI50: > 100 µM (inactive)
COLO 205
  GI50: > 100 µM (inactive)
SNB-19
  GI50: > 100 µM (inactive)
OVCAR-8
  GI50: > 100 µM (inactive)
SNB-75
  GI50: > 100 µM (inactive)
HT-29
  GI50: > 100 µM (inactive)
IGROV-1
  GI50: > 100 µM (inactive)
SN12C
  GI50: > 100 µM (inactive)
NCI-H226
  GI50: > 100 µM (inactive)
UO-31
  GI50: > 100 µM (inactive)
NCI-H522
  GI50: > 100 µM (inactive)
SW-620
  GI50: > 100 µM (inactive)
UACC-62
  GI50: > 100 µM (inactive)

## CCOc1ccc(/C(Cl)=C(\C=O)c2ccc(OC)c(OC)c2)cc1OCC
HCT-15
  GI50: 28.3 µM
SF-539
  GI50: 48.9 µM (inactive)
HOP-62
  GI50: 30.1 µM (inactive)
786-0
  GI50: 64.9 µM (inactive)
CAKI-1
  GI50: > 100 µM (inactive)
SF-268
  GI50: 63.8 µM (inactive)
OVCAR-3
  GI50: > 100 µM (inactive)
COLO 205
  GI50: 61.5 µM (inactive)
SNB-19
  GI50: 55.3 µM (inactive)
OVCAR-8
  GI50: 46.8 µM (inactive)
SNB-75
  GI50: 29.9 µM (inactive)
HT-29
  GI50: 41.1 µM (inactive)
IGROV-1
  GI50: > 100 µM (inactive)
SN12C
  GI50: 44.6 µM (inactive)
NCI-H226
  GI50: 67.1 µM (inactive)
UO-31
  GI50: 53 µM (inactive)
NCI-H522
  GI50: 18.2 µM (inactive)
SW-620
  GI50: 83.9 µM (inactive)
UACC-62
  GI50: 33 µM (inactive)

## O=c1cc(-c2ccccc2)nc(/C=C(\O)c2ccncc2)n1-c1ccccc1
HCT-15
  GI50: > 100 µM
SF-539
  GI50: > 100 µM (inactive)
HOP-62
  GI50: > 100 µM (inactive)
786-0
  GI50: > 100 µM (inactive)
CAKI-1
  GI50: > 100 µM (inactive)
SF-268
  GI50: > 100 µM (inactive)
OVCAR-3
  GI50: > 100 µM (inactive)
COLO 205
  GI50: > 100 µM (inactive)
SNB-19
  GI50: > 100 µM (inactive)
OVCAR-8
  GI50: > 100 µM (inactive)
SNB-75
  GI50: 70.1 µM (inactive)
HT-29
  GI50: > 100 µM (inactive)
IGROV-1
  GI50: > 100 µM (inactive)
SN12C
  GI50: > 100 µM (inactive)
NCI-H226
  GI50: > 100 µM (inactive)
UO-31
  GI50: > 100 µM (inactive)
NCI-H522
  GI50: > 100 µM (inactive)
SW-620
  GI50: > 100 µM (inactive)
UACC-62
  GI50: > 100 µM (inactive)

## COc1ccc2[nH]c3c4c(c5cc(C(C)(C)C)ccc5c3c2c1)C(=O)N(c1ccccc1)C4=O
SF-539
  GI50: 21.7 µM (inactive)
HOP-62
  GI50: > 100 µM (inactive)
786-0
  GI50: > 100 µM (inactive)
CAKI-1
  GI50: > 100 µM (inactive)
SF-268
  GI50: > 100 µM (inactive)
OVCAR-3
  GI50: > 100 µM (inactive)
COLO 205
  GI50: > 100 µM (inactive)
SNB-19
  GI50: > 100 µM (inactive)
OVCAR-8
  GI50: 44.7 µM (inactive)
SNB-75
  GI50: 57 µM (inactive)
HT-29
  GI50: > 100 µM (inactive)
IGROV-1
  GI50: > 100 µM (inactive)
NCI-H226
  GI50: > 100 µM (inactive)
UO-31
  GI50: > 100 µM (inactive)
NCI-H522
  GI50: > 100 µM (inactive)
SW-620
  GI50: > 100 µM (inactive)
UACC-62
  GI50: > 100 µM (inactive)

## O=C(/N=C(\Nc1ccccc1)SCCS/C(=N/C(=O)c1cccs1)Nc1ccccc1)c1cccs1
HCT-15
  GI50: 44.6 µM
SF-539
  GI50: > 100 µM (inactive)
HOP-62
  GI50: 80.4 µM (inactive)
786-0
  GI50: 61.4 µM (inactive)
CAKI-1
  GI50: 23.3 µM (inactive)
SF-268
  GI50: > 10 µM (inactive)
OVCAR-3
  GI50: 54 µM (inactive)
COLO 205
  GI50: 77.1 µM (inactive)
SNB-19
  GI50: > 100 µM (inactive)
OVCAR-8
  GI50: 73.3 µM (inactive)
SNB-75
  GI50: 35.6 µM (inactive)
HT-29
  GI50: 33.3 µM (inactive)
IGROV-1
  GI50: > 100 µM (inactive)
SN12C
  GI50: 59.8 µM (inactive)
NCI-H226
  GI50: 55.8 µM (inactive)
UO-31
  GI50: 31.7 µM (inactive)
NCI-H522
  GI50: 20.9 µM (inactive)
SW-620
  GI50: 95.7 µM (inactive)
UACC-62
  GI50: 47 µM (inactive)

## COC(c1ccccc1)C(c1ccccc1)N1CCOCC1 (configuration not stated)
SF-539
  GI50: > 100 µM (inactive)
HOP-62
  GI50: > 100 µM (inactive)
786-0
  GI50: > 100 µM (inactive)
CAKI-1
  GI50: > 100 µM (inactive)
SF-268
  GI50: > 100 µM (inactive)
OVCAR-3
  GI50: > 100 µM (inactive)
COLO 205
  GI50: > 100 µM (inactive)
SNB-19
  GI50: > 100 µM (inactive)
OVCAR-8
  GI50: > 100 µM (inactive)
SNB-75
  GI50: > 100 µM (inactive)
HT-29
  GI50: > 100 µM (inactive)
IGROV-1
  GI50: > 100 µM (inactive)
SN12C
  GI50: > 100 µM (inactive)
NCI-H226
  GI50: > 100 µM (inactive)
UO-31
  GI50: > 100 µM (inactive)
NCI-H522
  GI50: > 100 µM (inactive)
SW-620
  GI50: > 100 µM (inactive)
UACC-62
  GI50: > 100 µM (inactive)

## Cc1cc(C[C@H]2O[C@@H]3OC(C)(C)O[C@@H]3[C@H]3OC(C)(C)O[C@H]32)c2ccccc2n1
HCT-15
  GI50: 76.4 µM
SF-539
  GI50: > 100 µM (inactive)
HOP-62
  GI50: 55.3 µM (inactive)
786-0
  GI50: > 100 µM (inactive)
CAKI-1
  GI50: 56.6 µM (inactive)
SF-268
  GI50: > 100 µM (inactive)
COLO 205
  GI50: > 100 µM (inactive)
SNB-19
  GI50: > 100 µM (inactive)
OVCAR-8
  GI50: 43.1 µM (inactive)
SNB-75
  GI50: > 100 µM (inactive)
HT-29
  GI50: > 100 µM (inactive)
IGROV-1
  GI50: 49.8 µM (inactive)
SN12C
  GI50: > 100 µM (inactive)
NCI-H226
  GI50: 55.3 µM (inactive)
UO-31
  GI50: 33.3 µM (inactive)
NCI-H522
  GI50: 16 µM (inactive)
SW-620
  GI50: > 100 µM (inactive)
UACC-62
  GI50: > 100 µM (inactive)

## CCNC(=O)COc1ccc(Cl)cc1Cl
HCT-15
  GI50: > 100 µM
SF-539
  GI50: > 100 µM (inactive)
HOP-62
  GI50: > 100 µM (inactive)
786-0
  GI50: > 100 µM (inactive)
CAKI-1
  GI50: > 100 µM (inactive)
SF-268
  GI50: > 100 µM (inactive)
OVCAR-3
  GI50: > 100 µM (inactive)
COLO 205
  GI50: > 100 µM (inactive)
SNB-19
  GI50: > 100 µM (inactive)
OVCAR-8
  GI50: > 100 µM (inactive)
SNB-75
  GI50: > 100 µM (inactive)
HT-29
  GI50: > 100 µM (inactive)
IGROV-1
  GI50: > 100 µM (inactive)
SN12C
  GI50: > 100 µM (inactive)
NCI-H226
  GI50: > 100 µM (inactive)
UO-31
  GI50: > 100 µM (inactive)
NCI-H522
  GI50: > 100 µM (inactive)
SW-620
  GI50: > 100 µM (inactive)

## CC12CCC(=O)C[C@H]1CCC(OC=O)C2Br (some centres not stated)
HCT-15
  GI50: > 100 µM
SF-539
  GI50: > 100 µM (inactive)
HOP-62
  GI50: > 100 µM (inactive)
786-0
  GI50: > 100 µM (inactive)
CAKI-1
  GI50: > 100 µM (inactive)
SF-268
  GI50: > 100 µM (inactive)
OVCAR-3
  GI50: > 100 µM (inactive)
COLO 205
  GI50: > 100 µM (inactive)
SNB-19
  GI50: > 100 µM (inactive)
OVCAR-8
  GI50: > 100 µM (inactive)
SNB-75
  GI50: > 100 µM (inactive)
HT-29
  GI50: > 100 µM (inactive)
IGROV-1
  GI50: > 100 µM (inactive)
SN12C
  GI50: > 100 µM (inactive)
NCI-H226
  GI50: > 100 µM (inactive)
UO-31
  GI50: > 100 µM (inactive)
NCI-H522
  GI50: > 100 µM (inactive)
SW-620
  GI50: > 100 µM (inactive)
UACC-62
  GI50: > 100 µM (inactive)

Reference: ChEMBL document CHEMBL1201862, “PubChem BioAssay data set” (2004)
